Each structure is given as a SMILES string. Where “and” joins values, the source holds several entries; their conditions need not be identical. Equal values may be shown once.

By IC50 is commonly meant the concentration at which inhibition is half-maximal. One may read the inhibition as how much of the control response was suppressed. Read a low inhibition as little suppression.

One data set concerns the target T1, Adrenergic α2c (Homo sapiens, UniProt P18825).
T1 construct: 203800
T1 sequence (P18825 1-462): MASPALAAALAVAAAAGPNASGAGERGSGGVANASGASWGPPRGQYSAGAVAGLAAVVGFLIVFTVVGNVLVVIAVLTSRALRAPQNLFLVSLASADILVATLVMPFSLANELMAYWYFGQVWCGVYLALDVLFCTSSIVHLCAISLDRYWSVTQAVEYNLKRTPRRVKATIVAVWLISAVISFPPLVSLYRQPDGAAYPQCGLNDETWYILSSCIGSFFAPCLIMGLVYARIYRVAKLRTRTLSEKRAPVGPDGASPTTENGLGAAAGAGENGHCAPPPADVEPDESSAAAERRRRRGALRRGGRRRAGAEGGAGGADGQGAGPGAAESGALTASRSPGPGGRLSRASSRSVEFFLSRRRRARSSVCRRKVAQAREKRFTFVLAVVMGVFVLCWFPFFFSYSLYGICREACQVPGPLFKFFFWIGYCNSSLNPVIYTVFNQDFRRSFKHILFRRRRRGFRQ
As to the kind of experiment: Radioligand binding assay, Adrenergic α2c. The text has this: (§1) . Table 1 provides data produced via a receptor binding assay and IC50 and Ki determination. […] In addition, the compound of formula (Ia) has a potent DAT inhibition, which is indicative of dopaminergic uptake inhibition and increased DA activity. In addition to the effect on SERT and DAT, the compound of formula (Ia) inhibited the transporter of Norepinephrine (NET), and several neurotransmitter's receptors like alpha2A and alpha2C receptors, alpha 1A and alphal C, 5HT2A and 5HT2C, signal histamine2 and dopamine D1. This specific profile is in line with the data on antidepressant, anxiolytic and moderate neuro-stimulation activity observed in the animal model studies.
(§2) With regard to the data provided in Table 1, the biochemical assay results are presented as the percent inhibition of specific binding or activity throughout the report. For primary assays, only the lowest concentration with a significant response judged by the assays’ criteria, is shown in this summary. […] Unless otherwise requested, primary screening in duplicate with quantitative data (e.g., IC50±SEM, Ki±SEM and nH) are shown.

Data set [1] concerns the target Serotonin (5-Hydroxytryptamine) 5-HT6 (Homo sapiens, UniProt P50406). As to the kind of experiment: Radioligand binding assay, 5-HT6.
Excerpt: as §1, §2

Another data set has as its target T2, Adrenergic α1D (Homo sapiens, UniProt P25100).
T2 sequence (P25100 1-572): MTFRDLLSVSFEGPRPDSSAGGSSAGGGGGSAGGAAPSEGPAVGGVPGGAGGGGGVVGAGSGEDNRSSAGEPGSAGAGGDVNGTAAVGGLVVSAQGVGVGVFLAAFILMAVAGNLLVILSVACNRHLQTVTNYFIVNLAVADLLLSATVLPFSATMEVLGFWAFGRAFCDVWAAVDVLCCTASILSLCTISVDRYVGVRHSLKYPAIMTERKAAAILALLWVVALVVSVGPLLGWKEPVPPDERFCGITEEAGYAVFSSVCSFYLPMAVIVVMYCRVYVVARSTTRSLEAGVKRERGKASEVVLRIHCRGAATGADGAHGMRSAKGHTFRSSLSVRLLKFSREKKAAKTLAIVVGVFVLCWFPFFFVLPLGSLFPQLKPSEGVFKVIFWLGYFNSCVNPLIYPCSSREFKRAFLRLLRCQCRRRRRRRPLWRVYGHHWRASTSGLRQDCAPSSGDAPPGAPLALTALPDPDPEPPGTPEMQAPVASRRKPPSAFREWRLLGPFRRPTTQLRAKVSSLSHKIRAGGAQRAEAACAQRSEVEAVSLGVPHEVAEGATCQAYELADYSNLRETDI
As to the kind of experiment: Radioligand binding assay, Adrenergic α1D.
Excerpt: as §1, §2

A further data set concerns the target T3, Adrenergic α1A (Rattus norvegicus, UniProt P43140).
T3 sequence (P43140 1-466): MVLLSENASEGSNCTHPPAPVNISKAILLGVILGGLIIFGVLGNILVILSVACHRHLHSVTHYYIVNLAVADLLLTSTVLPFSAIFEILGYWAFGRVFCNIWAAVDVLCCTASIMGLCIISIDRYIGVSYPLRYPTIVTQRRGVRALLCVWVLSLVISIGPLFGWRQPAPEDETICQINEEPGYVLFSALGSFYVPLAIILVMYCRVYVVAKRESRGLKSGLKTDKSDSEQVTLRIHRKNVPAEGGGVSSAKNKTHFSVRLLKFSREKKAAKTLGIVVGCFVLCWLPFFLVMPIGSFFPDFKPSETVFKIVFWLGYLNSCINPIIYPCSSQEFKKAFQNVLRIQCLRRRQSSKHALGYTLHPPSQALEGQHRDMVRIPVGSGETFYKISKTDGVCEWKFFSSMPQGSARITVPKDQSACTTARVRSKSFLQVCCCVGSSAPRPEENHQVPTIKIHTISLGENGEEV
As to the kind of experiment: Radioligand binding assay, Adrenergic α1A.
Excerpt: as §1, §2

Another data set has as its system BALB/c mice. As to the kind of experiment: Acute toxicity, ip administration. In kind it is in vivo. The settings on record: ip up to 30 mg/kg. As for the experimental part:
[…]. […] The body weight of the mice was determined up to 12 days after administration of the compounds.

The test system of another data set is BALBc male mice. As to the kind of experiment: Hot plate test. The settings on record: 10 mg/kg orally (sertraline equimolar). It is filed as in vivo. The text has this:
The hot-plate test is widely used to measure pain sensation. The latency in response to heat of mice and rats feet is based on the method described by Eddy et al., Synthetic analgesics. II. […] The method is based on placing an animal on heated (52-56 C) surface and measuring the time to response (raising paw, licking of the paw, jumping or running.
The animals were followed for 6 hr.
A general note: In hot-plate and tail-flick tests a longer latency is read as antinociception.

Serotonin (5-Hydroxytryptamine) 5-HT6, sequence (P50406 whole entry): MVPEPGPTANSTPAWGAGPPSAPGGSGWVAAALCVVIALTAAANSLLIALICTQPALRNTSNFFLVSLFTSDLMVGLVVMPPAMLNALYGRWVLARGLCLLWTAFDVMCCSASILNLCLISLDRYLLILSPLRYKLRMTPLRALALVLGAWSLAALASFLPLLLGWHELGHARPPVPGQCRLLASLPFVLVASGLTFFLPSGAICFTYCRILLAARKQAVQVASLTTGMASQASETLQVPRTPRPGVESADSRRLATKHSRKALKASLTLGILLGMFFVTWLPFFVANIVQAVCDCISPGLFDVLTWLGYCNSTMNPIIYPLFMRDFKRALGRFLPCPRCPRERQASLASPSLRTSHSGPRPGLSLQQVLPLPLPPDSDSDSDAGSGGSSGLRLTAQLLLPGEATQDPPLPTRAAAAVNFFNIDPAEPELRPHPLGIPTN

As to `CN[C@H]1CC[C@@H](c2ccc(Cl)c(Cl)c2)c2ccc(C#CCCCO)cc21` [compound Ia, (1S-cis)-4-(3,4-dichlorophenyl)-7-(5-hydroxy-1-pentyn-1-yl)-1,2,3,4-tetrahydro-N-methyl-1-naphthalenamine hydroiodide], the IC50 at Adrenergic α2c is 1900 nM; in data set [1], 2600 nM; at Adrenergic α1D, 2500 nM; at Adrenergic α1A, 4200 nM. Further, the nH is reported as 1.03 at Adrenergic α2c, 1.16 in data set [1], 1.04 on Adrenergic α1D and 1.34 on Adrenergic α1A. Moreover, the figures for the inhibition at 3 µM (at Adrenergic α2c (3 μM); in data set [1] (3 μM); at Adrenergic α1D (3 μM)) were 62%, 51% and 54%, respectively. Moreover, the Ki came out at 276 nM on Adrenergic α2c (read-out: K1), 1210 nM in data set [1] (read-out: K1), 1230 nM on Adrenergic α1D (read-out: K1) and 1700 nM on Adrenergic α1A (read-out: K1). The inhibition at 10 µM on Adrenergic α1A (10 μM) was 73%. Further, the survival entry in the data set with BALB/c mice is recorded as “all of the corresponding animals survived”. Further, the “time after drug administration with significant effect on reaction to heating” value in the data set with BALBc male mice (followed for 6 hr, hydroiodide) was 120 min and 240 min. Moreover, the “latency to heat sensation” value with BALBc male mice (vs vehicle treated control) was “significantly increase”.

The values are drawn from patent US20100130549A1, “PSYCHOTROPIC COMPOUNDS, COMPOSITIONS AND METHODS OF USE” (priority 2007, published 2010).
